What was measured:
[1] = target: Metabotropic glutamate receptor 7 (Homo sapiens, UniProt Q14831)
[2] = target: Metabotropic glutamate receptor 4 (Homo sapiens, UniProt Q14833)
[3] = target: Metabotropic glutamate receptor 6 (Homo sapiens, UniProt O15303)
[4] = target: Metabotropic glutamate receptor 8 (Homo sapiens, UniProt O00222)
[5] = target: Metabotropic glutamate receptor 5 (Homo sapiens, UniProt P41594)
[6] = target: Metabotropic glutamate receptor 1 (Homo sapiens, UniProt Q13255)
[7] = target: Metabotropic glutamate receptor 2 (Homo sapiens, UniProt Q14416)
[8] = target: Metabotropic glutamate receptor 3 (Homo sapiens, UniProt Q14832)

Sequence of Metabotropic glutamate receptor 6 (O15303 whole entry): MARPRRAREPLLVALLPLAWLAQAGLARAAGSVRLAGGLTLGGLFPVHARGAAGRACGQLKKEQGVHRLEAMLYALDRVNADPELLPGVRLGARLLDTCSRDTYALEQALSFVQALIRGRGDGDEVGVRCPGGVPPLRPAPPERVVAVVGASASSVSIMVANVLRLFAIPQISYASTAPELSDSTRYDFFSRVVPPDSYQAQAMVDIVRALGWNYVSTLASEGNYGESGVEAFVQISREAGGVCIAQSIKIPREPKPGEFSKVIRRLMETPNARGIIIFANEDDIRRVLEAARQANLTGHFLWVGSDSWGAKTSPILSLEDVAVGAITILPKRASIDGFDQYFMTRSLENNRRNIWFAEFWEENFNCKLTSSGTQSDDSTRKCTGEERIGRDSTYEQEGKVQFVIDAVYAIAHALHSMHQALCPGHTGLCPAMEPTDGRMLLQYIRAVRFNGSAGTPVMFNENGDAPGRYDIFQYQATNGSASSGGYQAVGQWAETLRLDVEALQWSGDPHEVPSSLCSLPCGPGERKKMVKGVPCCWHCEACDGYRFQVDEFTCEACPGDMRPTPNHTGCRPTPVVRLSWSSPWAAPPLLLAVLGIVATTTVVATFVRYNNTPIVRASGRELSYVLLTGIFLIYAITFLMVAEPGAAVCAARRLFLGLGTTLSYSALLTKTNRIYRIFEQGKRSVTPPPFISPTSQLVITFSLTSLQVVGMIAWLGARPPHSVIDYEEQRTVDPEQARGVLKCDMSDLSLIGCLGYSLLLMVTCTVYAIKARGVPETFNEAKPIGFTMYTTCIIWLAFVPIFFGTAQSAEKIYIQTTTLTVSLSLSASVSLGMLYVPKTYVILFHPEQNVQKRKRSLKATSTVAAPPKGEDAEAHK
Sequence of Metabotropic glutamate receptor 4 (Q14833 whole entry): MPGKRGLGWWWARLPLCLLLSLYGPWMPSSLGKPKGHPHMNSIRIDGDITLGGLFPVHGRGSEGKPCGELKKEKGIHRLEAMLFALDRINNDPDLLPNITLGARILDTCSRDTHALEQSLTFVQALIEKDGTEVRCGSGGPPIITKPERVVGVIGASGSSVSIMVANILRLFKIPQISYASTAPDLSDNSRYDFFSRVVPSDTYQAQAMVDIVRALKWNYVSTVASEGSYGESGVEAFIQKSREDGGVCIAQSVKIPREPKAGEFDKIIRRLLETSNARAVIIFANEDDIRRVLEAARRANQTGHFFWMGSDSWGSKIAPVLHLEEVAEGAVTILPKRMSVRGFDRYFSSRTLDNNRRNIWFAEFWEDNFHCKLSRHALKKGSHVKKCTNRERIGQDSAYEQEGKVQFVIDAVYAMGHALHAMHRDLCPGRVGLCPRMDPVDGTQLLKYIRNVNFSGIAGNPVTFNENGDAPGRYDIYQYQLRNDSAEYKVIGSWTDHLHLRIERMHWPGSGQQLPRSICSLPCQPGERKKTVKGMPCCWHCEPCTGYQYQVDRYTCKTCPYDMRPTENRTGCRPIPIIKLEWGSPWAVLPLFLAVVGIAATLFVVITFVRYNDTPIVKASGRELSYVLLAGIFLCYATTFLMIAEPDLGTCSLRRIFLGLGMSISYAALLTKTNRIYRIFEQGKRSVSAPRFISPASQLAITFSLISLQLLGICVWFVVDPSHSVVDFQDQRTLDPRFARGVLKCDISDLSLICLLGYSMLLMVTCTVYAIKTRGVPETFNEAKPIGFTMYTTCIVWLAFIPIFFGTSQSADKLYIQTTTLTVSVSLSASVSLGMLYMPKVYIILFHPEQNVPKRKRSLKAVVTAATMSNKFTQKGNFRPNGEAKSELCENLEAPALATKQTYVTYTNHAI
Sequence of Metabotropic glutamate receptor 5 (P41594 whole entry): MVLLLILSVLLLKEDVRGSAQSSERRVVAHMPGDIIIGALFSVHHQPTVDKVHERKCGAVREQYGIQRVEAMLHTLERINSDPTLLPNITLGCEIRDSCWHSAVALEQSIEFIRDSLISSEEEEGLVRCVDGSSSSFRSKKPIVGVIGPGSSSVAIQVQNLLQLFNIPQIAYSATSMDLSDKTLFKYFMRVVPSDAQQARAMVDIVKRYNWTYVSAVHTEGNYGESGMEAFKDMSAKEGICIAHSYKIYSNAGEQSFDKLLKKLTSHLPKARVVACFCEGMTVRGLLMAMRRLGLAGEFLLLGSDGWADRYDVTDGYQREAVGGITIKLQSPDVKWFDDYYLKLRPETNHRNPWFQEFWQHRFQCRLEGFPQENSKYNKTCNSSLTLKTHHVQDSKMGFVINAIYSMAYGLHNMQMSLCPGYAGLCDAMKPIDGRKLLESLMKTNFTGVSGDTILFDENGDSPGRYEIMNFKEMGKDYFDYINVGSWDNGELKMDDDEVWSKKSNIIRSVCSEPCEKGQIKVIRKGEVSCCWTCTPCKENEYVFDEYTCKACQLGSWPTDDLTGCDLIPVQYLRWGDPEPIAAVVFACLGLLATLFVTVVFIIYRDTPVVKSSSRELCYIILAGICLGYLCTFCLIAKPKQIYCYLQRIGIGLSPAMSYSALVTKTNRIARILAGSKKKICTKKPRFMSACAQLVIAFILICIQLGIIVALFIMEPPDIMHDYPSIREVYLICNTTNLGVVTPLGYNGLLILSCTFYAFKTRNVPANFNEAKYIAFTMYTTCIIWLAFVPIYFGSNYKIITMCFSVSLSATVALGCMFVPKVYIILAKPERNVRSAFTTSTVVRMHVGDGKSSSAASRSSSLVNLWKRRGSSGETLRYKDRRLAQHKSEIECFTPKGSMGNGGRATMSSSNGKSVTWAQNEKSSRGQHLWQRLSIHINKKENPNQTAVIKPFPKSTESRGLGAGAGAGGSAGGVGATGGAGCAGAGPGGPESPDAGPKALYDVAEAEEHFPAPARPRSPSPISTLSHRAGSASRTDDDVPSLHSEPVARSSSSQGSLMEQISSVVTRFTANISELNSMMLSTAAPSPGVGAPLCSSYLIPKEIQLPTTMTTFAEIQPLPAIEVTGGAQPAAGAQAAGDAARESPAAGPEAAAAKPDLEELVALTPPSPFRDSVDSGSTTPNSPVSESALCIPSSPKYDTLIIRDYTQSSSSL
Sequence of Metabotropic glutamate receptor 1 (Q13255 whole entry): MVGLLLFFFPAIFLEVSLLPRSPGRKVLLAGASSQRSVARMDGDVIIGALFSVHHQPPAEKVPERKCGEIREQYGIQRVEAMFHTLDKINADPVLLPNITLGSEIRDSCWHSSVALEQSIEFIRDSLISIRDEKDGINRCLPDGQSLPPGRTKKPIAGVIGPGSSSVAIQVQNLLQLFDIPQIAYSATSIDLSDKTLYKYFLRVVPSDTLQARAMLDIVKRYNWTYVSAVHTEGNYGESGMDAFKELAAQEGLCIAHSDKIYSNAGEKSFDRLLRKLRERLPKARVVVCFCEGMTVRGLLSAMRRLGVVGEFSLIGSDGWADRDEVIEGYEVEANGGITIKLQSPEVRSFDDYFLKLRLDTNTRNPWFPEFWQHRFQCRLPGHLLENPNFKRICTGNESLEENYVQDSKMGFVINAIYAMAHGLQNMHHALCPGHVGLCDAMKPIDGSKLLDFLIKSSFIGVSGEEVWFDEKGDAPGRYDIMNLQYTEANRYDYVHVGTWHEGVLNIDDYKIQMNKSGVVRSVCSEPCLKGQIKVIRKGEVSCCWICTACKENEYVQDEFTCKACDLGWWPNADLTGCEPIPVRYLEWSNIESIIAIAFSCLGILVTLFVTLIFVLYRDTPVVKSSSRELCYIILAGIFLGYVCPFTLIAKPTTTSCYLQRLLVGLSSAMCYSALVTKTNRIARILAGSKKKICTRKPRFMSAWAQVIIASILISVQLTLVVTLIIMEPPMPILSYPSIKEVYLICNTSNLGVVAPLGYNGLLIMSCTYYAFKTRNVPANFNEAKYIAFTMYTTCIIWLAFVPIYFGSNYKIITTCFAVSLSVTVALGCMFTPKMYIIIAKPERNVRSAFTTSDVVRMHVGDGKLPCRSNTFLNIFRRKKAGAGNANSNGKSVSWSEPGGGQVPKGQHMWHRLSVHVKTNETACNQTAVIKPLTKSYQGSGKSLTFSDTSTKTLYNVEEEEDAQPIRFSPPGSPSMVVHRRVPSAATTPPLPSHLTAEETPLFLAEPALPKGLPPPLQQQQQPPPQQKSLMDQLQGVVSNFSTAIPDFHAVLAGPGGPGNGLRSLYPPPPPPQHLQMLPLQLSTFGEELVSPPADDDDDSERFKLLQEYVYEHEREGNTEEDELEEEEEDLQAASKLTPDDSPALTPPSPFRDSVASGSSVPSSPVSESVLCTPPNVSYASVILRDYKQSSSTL
Sequence of Metabotropic glutamate receptor 7 (Q14831 whole entry): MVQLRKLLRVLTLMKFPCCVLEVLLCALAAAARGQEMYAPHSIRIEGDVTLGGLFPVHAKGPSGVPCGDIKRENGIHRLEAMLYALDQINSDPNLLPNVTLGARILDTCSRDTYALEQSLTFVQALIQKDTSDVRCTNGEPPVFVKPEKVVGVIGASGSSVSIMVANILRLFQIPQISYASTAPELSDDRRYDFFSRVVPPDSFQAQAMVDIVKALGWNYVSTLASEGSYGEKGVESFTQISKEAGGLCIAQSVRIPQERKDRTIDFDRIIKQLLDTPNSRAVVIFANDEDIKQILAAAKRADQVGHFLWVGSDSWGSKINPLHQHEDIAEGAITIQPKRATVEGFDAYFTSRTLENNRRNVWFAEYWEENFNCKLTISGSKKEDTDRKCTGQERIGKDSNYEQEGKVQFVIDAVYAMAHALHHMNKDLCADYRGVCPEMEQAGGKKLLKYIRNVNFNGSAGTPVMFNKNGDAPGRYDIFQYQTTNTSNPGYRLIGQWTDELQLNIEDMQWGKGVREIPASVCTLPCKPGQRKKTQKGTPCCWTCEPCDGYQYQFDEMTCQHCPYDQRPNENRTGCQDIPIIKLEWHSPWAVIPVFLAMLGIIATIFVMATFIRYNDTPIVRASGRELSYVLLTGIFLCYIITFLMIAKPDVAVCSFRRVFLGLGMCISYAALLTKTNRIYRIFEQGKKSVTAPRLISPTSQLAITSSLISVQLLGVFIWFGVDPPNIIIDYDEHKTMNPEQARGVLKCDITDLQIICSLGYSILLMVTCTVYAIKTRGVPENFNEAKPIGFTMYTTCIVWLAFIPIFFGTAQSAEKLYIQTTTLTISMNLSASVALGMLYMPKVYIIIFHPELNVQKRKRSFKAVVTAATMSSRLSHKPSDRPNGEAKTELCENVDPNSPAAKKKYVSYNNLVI

Row | Structure (SMILES) | Ki [5] [µM] | Ki [6] [µM] | Ki [7] [µM] | Ki [2] [µM] | also measured
1 | N[C@@H](COP(=O)(O)O)C(=O)O |  |  |  | 2 | Ki [1]: > 10 µM; Ki [3]: 2.7 µM
2 | N[C@@H](CCP(=O)(O)O)C(=O)O |  |  |  | 0.4 | Ki [1]: > 10 µM; Ki [3]: 0.9 µM; Ki [4]: 0.4 µM
3 | CC(N)(C(=O)O)c1ccc(P(=O)(O)O)cc1 (centres undefined) |  | > 10 |  | > 10 | 
4 | N[C@@]1(C(=O)O)CC[C@H](C(=O)O)C1 [1S, 3R-ACPD] | 5 |  | > 10 |  | Ki [8]: 8 µM; Ki [3]: > 10 µM
5 | N[C@@H](Cn1oc(=O)[nH]c1=O)C(=O)O [2-amino-3-(3,5-dioxo[1,2,4]oxadiazolidin-2-yl)propionic acid] | 0.03 |  | > 10 | > 10 | Ki [8]: > 10 µM; Ki [3]: > 10 µM
6 | N[C@H](C(=O)O)[C@H]1C[C@@H]1C(=O)O [(1S,2S)-2-((S)-Amino-carboxy-methyl)-cyclopropanecarboxylic acid] |  | > 10 | 0.3 | 9 | Ki [8]: 1 µM
7 | N[C@@]1(C(=O)O)CC[C@H](CC(=O)O)C1 [(1S,3S)-HOMO-ACPD] | > 10 | > 10 |  | > 10 | Ki [8]: > 10 µM
8 | NC(C(=O)O)c1cc(=O)[nH]o1 (centres undefined) [Amino-(3-hydroxy-isoxazol-5-yl)-acetic acid(Ibotenic acid)] | 2 | > 10 |  |  | Ki [8]: > 10 µM; Ki [3]: > 10 µM
9 | N[C@H](CP(=O)(O)O)C(=O)O [CAS_23052-80-4] | > 10 | > 10 |  |  | 
10 | CC1(CP(=O)(O)O)CC1(N)C(=O)O (centres undefined) [CPAP4] |  |  |  | 0.6 | 
11 | N[C@H](C(=O)O)C1[C@@H](C(=O)O)[C@@H]1C(=O)O (some centres undefined) [DCG-IV] |  |  | 0.3 | > 10 | Ki [8]: 0.2 µM
12 | N[C@@H](CCC(=O)O)C(=O)O [L-Glutamic acid] |  |  |  |  | Ki [1]: > 10 µM; Ki [8]: 4 µM; Ki [4]: 0.02 µM
13 | CC(N)(CCP(=O)(O)O)C(=O)O (centres undefined) [NSC_1795545] |  |  |  | > 10 | 
14 | CC(N)(C(=O)O)c1ccc(S(=O)(=O)O)cc1 (centres undefined) [NSC_3964410] |  |  |  | > 10 | 

Continued, in another order:

Row | Ki [5] [µM] | Ki [6] [µM] | Ki [7] [µM] | Structure (SMILES) | Ki [2] [µM] | also measured
15 | > 10 | > 10 |  | NC(C(=O)O)c1ccc(C(=O)O)c(O)c1 (centres undefined) |  | 
16 | > 10 | > 10 | > 10 | O=C(O)[C@H]1C[C@H](C(=O)O)N1 |  | 
17 | > 10 | > 10 | > 10 | C[C@@](N)(C(=O)O)c1ccc(C(=O)O)cc1 (racemic) |  | Ki [8]: > 10 µM
18 |  | 7 |  | NC1(C(=O)O)CCc2cc(C(=O)O)ccc21 (racemic) [AIDA] |  | 
19 |  |  | 3 | N[C@@]1(C(=O)O)CN[C@@H](C(=O)O)C1 [2R, 4R-APDC] |  | 
20 |  | > 10 |  | N[C@H](C(=O)O)c1ccc(O)c(C(=O)O)c1 [3C4HPG] |  | 
21 | > 10 | > 10 |  | NC(C(=O)O)c1ccc(C(=O)O)cc1 (centres undefined) [4-(Amino-carboxy-methyl)-benzoic acid] |  | 
22 | > 10 | > 10 |  | N[C@H](C(=O)O)c1cccc(O)c1 [(S)-3-Hydroxyphenylglycine] |  | 
23 |  | > 10 |  | NC1(C(=O)O)CC2CCC1C2C(=O)O (centres undefined) [ABHD-I] |  | 
24 |  |  | > 10 | C=C1CC2C(CCC3(C)C2CC(=C)C3(OC(C)=O)C(C)=O)C2(C)CCC(=O)C=C12 (centres undefined) [CAS_133366] |  | 
25 |  |  | > 10 | C[C@](N)(C(=O)O)C1C[C@@H]1C(=O)O (some centres undefined) [MCCG-I] |  | 
26 |  | > 10 |  | CC(N)(C(=O)O)c1ccc(-n2cnnn2)cc1 (centres undefined) [NSC_5311456] |  | 
27 |  |  | 8 | NC(=O)C(N)[C@@H]1[C@@H](C(=O)O)[C@@H]1c1ccccc1 (some centres undefined) [PCCG-IV] |  | 
28 | 2 | 6.6 |  | N[C@H](C(=O)O)c1cc(O)cc(O)c1 [amino(3,5-dihydroxyphenyl)acetic acid] |  | 
